Reference: patent US7098219B2, “Inhibitors of cellular efflux pumps of microbes” (Wockhart Limited, priority 2000, dated 2006)

Test system: Staphylococcus aureus 1199 B NorA+
Format: cell-based
Settings: combination with ciprofloxacin, broth microdilution checkerboard, 35° C. 20 hours; FIC index ≦0.5 synergistic, 0.5–2.0 additive, >2.0 antagonistic
Description: Testing method for inhibition of the efflux pump of Staphylococcus aureus 1199B NorA^+
[…]. Victor Lorian, Md., Fourth edition 1996, pp 333–338).
In short, the assay involves broth microdilution method performed as recommended by the National Committee for Clinical Laboratory Standards (NCCLS) 1997 (Methods for Dilution of Antimicrobial Susceptibility Tests for Bacteria that Grow Aerobically, Fourth edition; Approved Standard, NCCLS document M7-A4, vol. 17, No. 2). The test organism used for the assay is Staphylococcus aureus 1199 B NorA^+.
[…]. Stock solutions of the efflux pump inhibitors tested are prepared in dimethyl sulfoxide (DMSO) at a final concentration of 5 mg/ml. Stock solutions are further diluted in Mueller Hinton Broth as per the need of the assay. Ciprofloxacin is dissolved in water.
The checkerboard assay is performed in microtiter plates. […] The efflux pump inhibitor is diluted in the Y-axis, each row containing an equal concentration of efflux pump inhibitor. The result of these manipulations is that each well of the microtiter plate contains a unique combination of concentrations of the two agents. Bacterial inoculum is added at 5×10^5 CFU/ml. Microtiter plates are incubated at 35° C. for 20 hours. Reading is done by visibly noting turbidity and confirmed using a microtiter plate reader (Molecular Devices). The FIC index is calculated as
(A) is the concentration of the experimental efflux pump inhibitor in the well that is the lowest inhibitory concentration in the Y-axis. (MICA) is the MIC of Staphylococcus aureus to experimental efflux pump inhibitor alone. FICA is the fractional inhibitory concentration of an experimental efflux pump inhibitor. […] (Antimicrobial Combination In Antibiotics in Laboratory Medicine, Ed. Victor Lorian, Md., Fourth edition 1996, pp 333–338).

Compound | FIC INDEX
CCCCN(CCCC)C1CCN(c2c(F)c(N)c3c(=O)c(C(=O)O)cn(C4CC4)c3c2F)CC1 [Example 28 (NorA), 5-Amino-1-cyclopropyl-6,8-difluoro-1,4-dihydro-7-{4′-(N-di-n-butylamino)piperidin-1-yl)-4-oxo-quinoline-3-carboxylic acid] | 0.314
N-3-azabycyclo{7-(1-(2,4-difluorophenyl)-6-fluoro-1,4-dihydro-4-oxo-1,8-naphthyridine-3-carboxylic acid)}-[1∝,5∝,6∝]-N-6-amino-{7-1-(2,4-difluorophenyl)-6-fluoro-1,4-dihydro-4-oxo-1,8-naphthyridine-3-carboxylic acid)}-3.1.0]hexane [Bis compound 9] | 0.314
Nc1c(F)c(N2CCC(N3CCCC3)CC2)c(F)c2c1c(=O)c(C(=O)O)cn2C1CC1 [Example 32 (NorA), 5-Amino-1-cyclopropyl-6,8-difluoro-1,4-dihydro-7-{4′-(1-pyrrolidinyl)piperidin-1-yl)-4-oxo-quinoline-3-carboxylic acid] | 0.340
CCNC1CCN(c2cc3c(cc2F)c(=O)c(C(=O)O)cn3-c2ccc(F)cc2)CC1 [Example 44 (NorA)] | 0.189
CC1CN(c2cc3c(cc2F)c(=O)c(C(=O)O)cn3C2CC2)CC(C)N1C (stereo not shown) [Example 15 (NorA), 1-Cyclopropyl-6-fluoro-1,4-dihydro-7-(3′,4′,5′-trimethylpiperazin-1-yl)-4-oxo-quinoline-3-carboxylic acid] | 0.314
CCn1cc(C(=O)O)c(=O)c2c(N)c(F)c(N3CCC(N)CC3)c(F)c21 [Example 6 (NorA), 5-Amino-1-ethyl-6,8-difluoro-1,4-dihydro-7-(4′-aminopiperidin-1-yl)-4-oxo-quinoline-3-carboxylic acid] | 0.314
Cc1c(F)c(N2CCC(Nc3c(F)c(N)c4c(=O)c(C(=O)O)cn(C5CC5)c4c3F)CC2)cc2c1c(=O)c(C(=O)O)cn2C1CC1 [Bis compound 6, N-1-{7-(1-cyclopropyl-6-fluoro-5-methyl-1,4-dihydro-4-oxo-quinolone-3-carboxylic acid)}-N-4-amino{7-(1-cyclopropyl-6,8-difluoro-5-amino-1,4-dihydro-4-oxo-quinoline-3-carboxylic acid)}-piperidine] | 0.304
C[C@H]1CCc2c(N3CCC(C(N)=O)CC3)c(F)cc3c(=O)c(C(=O)O)cn1c23 [Example 53 (NorA), (S)-(−)-9-Fluoro-6,7-dihydro-8-(4′-carboxamidopineridin-1-yl)-5-methyl-1-oxo-1H,5H-benzo[i,j]quinolizine-2-carboxylic acid] | 0.192
CCOC(=O)NC1CCN(c2nc3c(cc2F)c(=O)c(C(=O)O)cn3C2CC2)C1 (stereo not shown) [Example 48 (NorA), 1-Cyclopropyl-6-fluoro-1,4-dihydro-7-{(3′-aminoethoxycarbonyl)pyrrolidin-3-yl}-4-oxo-naphthyridine-3-carboxylic acid] | (3-ethoxycarbonylamino)pyrrolidin-3-yl 0.314
(S)-(−)-9-Fluoro-6,7-dihydro-8-(4′-hydroxypiperidin-1-yl)-5-methyl-1-oxo-1H,5H-benzo[i,j]quinolizine-2-carboxylic acid L-aryinine salt [Example 54 (NorA)] | 0.314
COc1c(N2CCC(O)C(CC(C)C)C2)c(F)cc2c(=O)c(C(=O)O)cn(C3CC3)c12 (stereo not shown) [Example 20 (NorA), 1-Cyclopropyl-6-fluoro-8-methoxy-1,4-dihydro-7-(4′-hydroxy-3′-isobutylpiperidin-1-yl)-4-oxo-quinoline-3-carboxylic acid] | 0.248
CC1CCC(N)N1c1c(F)c(N)c2c(=O)c(C(=O)O)cn(C3CC3)c2c1F (stereo not shown) [Example 26 (NorA), 5-Amino-1-cyclopropyl-6,8-difluoro-1,4-dihydro-7-(5′-amino-2′-methyl-pyrrolidin-1-yl)-4-oxo-quinoline-3-carboxylic acid] | 0.628
COc1c(N2CC(C)C(N)C(C)C2)c(F)c(N)c2c(=O)c(C(=O)O)cn(C3CC3)c12 (stereo not drawn) [Example 24 (NorA), 5-Amino-1-cyclopropyl-6-fluoro-8-methoxy-1,4-dihydro-7-(cis-4′-amino-3′,5′-dimethylpiperidin-1-yl)-4-oxo-quinoline-3-carboxylic acid] | 0.314
CCOC(=O)c1cn(-c2ccc(F)cc2F)c2nc(N3CCc4c(cnn4-c4ccccc4)C3)c(F)cc2c1=O [Example 52 (NorA), Ethyl 6-fluoro-7-[1-Phenyl-4,5,6,7-tetrahydropyrazolo[4.3-c]pyridin-1-yl]-1-(2,4-difluorophenyl)-4-oxo-1,4-dihydro-1,8-naphthyridine-3-carboxylate] | 0.100
Nc1c(F)c(N2CCC(N)C2)c(F)c2c1c(=O)c(C(=O)O)cn2-c1ccc(C(F)(F)F)cc1 (stereo not shown) [Example 43 (NorA), 5-Amino-1-(4′-trifluoromethylphenyl)-6,8-difluoro-1,4-dihydro-7-(3′-aminopyrrolidin-1-yl)-4-oxo-quinoline-3-carboxylic acid] | 0.564
CCOC1CCN(c2cc3c(c(C)c2F)c(=O)c(C(=O)O)cn3C2CC2)CC1 [Example 17 (NorA), 1-Cyclopropyl-6-fluoro-1,4-dihydro-5-methyl-7-(4′-ethoxypiperidin-1-yl)-4-oxo-quinoline-3-carboxylic acid] | 0.378
COc1c(N2CCC(N(C)C)C(C)C2)c(F)cc2c(=O)c(C(=O)O)cn(C3CC3)c12 (stereo not shown) [19 (NorA), 1-Cyclopropyl-6-fluoro-8-methoxy-1,4-dihydro-7-{4′-(N-dimethylamino)-3′-methylpiperidin-1-yl}-4-oxo-quinoline-3-carboxylic acid] | 0.200
CC1(C)CN(c2c(F)c(N)c3c(=O)c(C(=O)O)cn(-c4ccc(F)cc4F)c3c2F)CCN1 [Example 47 (NorA), 5-Amino-1-(2′,4′-difluorophenyl)-6,8-difluoro-1,4-dihydro-7-(3′,3′-dimethylpiperazin-1-yl)-4-oxo-quinoline-3-carboxylic acid] | 0.375
Cc1c(F)c(N2CCC(Nc3nc4c(cc3F)c(=O)c(C(=O)O)cn4-c3ccc(F)cc3F)C2)cc2c1c(=O)c(C(=O)O)cn2C1CC1 (stereo not shown) [Bis compound 5, N-1-{7-(1-cyclopropyl-6-fluoro-5-methyl-1,4-dihydro-4-oxo-quinolone-3-carboxylic acid)}-N-3-amino-{7-(1-(2,4-difluorophenyl)-6-fluoro-1,4-dihydro-4-oxo-1,8-naphthyridine-3-carboxylic acid)}-pyrrolidine] | 0.320
C[C@H]1CCc2c(N3CCC(O)C(C)(C)C3)c(F)cc3c(=O)c(C(=O)O)cn1c23 (stereo partly drawn) [Example 55 (NorA), S-(−)-9-Fluoro-6,7-dihydro-8-(4′-hydroxy-3′,3′-dimethylpiperidin-1-yl)-5-methyl-1-oxo-1H,5H-benzo[i,j]quinolizine-2-carboxylic acid] | 0.378
Nc1c(F)c(N2CCN(C3CC3)CC2)c(F)c2c1c(=O)c(C(=O)O)cn2C1CC1 [Example 36 (NorA), 5-Amino-1-cyclopropyl-6,8-difluoro-1,4-dihydro-7-(4′-cyclopropylpiperazin-1-yl)-4-oxo-quinoline-3-carboxylic acid] | 0.314
CN(c1c(F)c(N)c2c(=O)c(C(=O)O)cn(C3CC3)c2c1F)C1CC(C)(C)N(C)C(C)(C)C1 [Example 34 (NorA)] | 0.282
CCOC(=O)c1cn(-c2ccc(F)cc2F)c2nc(NC3C4CN(Cc5ccccc5)CC43)c(F)cc2c1=O (stereo not shown) [Example 51 (NorA), Ethyl-1-(2′,4′-difluorophenyl)-6-fluoro-1,4-dihydro-7-{[1∝,5∝,6∝]-3-N-benzyl-3-azabicyclo[3.1.01]hex-6-yl-amino}-4-oxo-1,8-naphthyridine-3-carboxylate] | 0.185
Nc1c(F)c(N2CCN(c3nc4c(cc3F)c(=O)c(C(=O)O)cn4C3CC3)CC2)c(F)c2c1c(=O)c(C(=O)O)cn2C1CC1 [Bis compound 4, N-1-{7-(1-cyclopropyl-6-fluoro-1,4-dihydro-4-oxo-1,8-naphthyridine-3-carboxylic acid)}-N-4-{7-(1-cyclopropyl-6,8-difluoro-5-amino-1,4-dihydro-4-oxo-quinoline-3-carboxylic acid)}-piperazine] | 0.282
CC1CC(C)CN(c2cc3c(cc2F)c(=O)c(C(=O)O)cn3-c2ccc(F)cc2F)C1 (stereo not shown) [Example 45 (NorA), 1-(2′,4′-Difluorophenyl)-6-fluoro-1,4-dihydro-7-(3′,5′-dimethylpiperidin-1-yl)-4-oxo-quinoline-3-carboxylic acid] | 0.192
